Patent US11390625B2, “Aryl-phosphorus-oxygen compound as EGFR kinase inhibitor” (Chia Tai Tianqing Pharmaceutical Group Co., Ltd., priority 2017, dated 2022)

Key:
A431 cells (EGFR WT) = assay: Cell antiproliferation experiment (1), A431 cells, CellTiter Glo; type: cell-based; details: Homo sapiens, A-431, 72 h, read-out: anti-proliferation effect on cells A431 EGFR WT IC50
Procedure: 1) Cell Culture and Passage
(1) A431 medium: 88% DMEM+10% fetal bovine serum+1% L-glutamine+1% double-antibody
(2) A431 cells were isolated and passaged every 3-4 days, wherein the number of the cells for 3-day passage was 5e6 cells per T75 culture flask, and the number of the cells for 4-day passage was 3e6 cells per T75 culture flask.
2) Day 1: Preparation of Cell Plate
(1) Phosphate buffer, trypsin, and a culture medium were placed in a water bath at 37° C. to preheat.
(2) The original medium was removed from the cell culture flask and washed once with 6 mL of PBS.
(3) 5 mL of phosphate buffer was pipetted into the culture flask to rinse the cells (passage 17), and then the liquid was discarded.
(4) The cell culture flask was added with 3.5 mL of trypsin, and shaken gently, trypsin was removed after fully contact with the cells, and then the culture flask was placed in an incubator containing 5% CO2 at 37° C. for about 1 minute;
(5) The cells were resuspended in 10 mL cell culture medium, and about 0.6 mL of cell suspension was take out for counting (ViCell XR);
(6) The cell suspension was diluted with the medium to the cell density of 5e4 cells per ml, which was required for plating (cell concentration: 2500 cells per well);
(7) 100 μL of phosphate buffer solution was added to each well around the cell plate, while 50 μL of the cell suspension was added to other wells, and the plate was incubated overnight in a incubator containing 5% CO2 at 37° C.
(1) 9 μL of the compound (concentration: 1 mM) was added into a shallow well plate for Echo.
(2) The shallow well plate was centrifuged at 1000 rpm for 10 s and the cell plate was removed from the incubator.
(3) According to the layout of the microplate, the compounds was diluted with a three-fold concentration gradient using Echo, each compound was diluted to 10 concentration gradients and 250 nL of the diluted compounds was respectively added to the cell plate, and then the cell plate was returned to the incubator and further incubated for 3 days.
4) Day 5: Adding CTG and Reading the Plate
(1) After incubation for 72 h, 25 μL of CellTiter Glo was added to each well of the cell plate, followed by shaking the plate for 10 min in the dark.
(2) The plate was read on Envision.
Data analysis: By computer fitting, the corresponding concentration of the compound at 50% inhibition rate was read as the IC50 of the compound for inhibiting cell activity.

[1] = test system: Ba/F3 (EGFR Δ19del/T790M/C797S) cells; assay: Anti-proliferation experiment on cells (2), Ba/F3 (EGFR Δ19del/T790M/C797S); type: cell-based; details: Ba/F3 EGFR, 72 h; Ba/F3 cells, 3 days; read-out: anti-proliferation effect on cells Ba/F3(Δ19del/T790M/C797S) IC50
Procedure: The compounds ware transferred to a 384-well plate, with 125 nL of compound per well. […] After 3 days, 25 μL of detection reagent was added. The plate was incubated at room temperature for 10 minutes and then read with Envision.

[2] = test system: pEGFR Ba/F3 (EGFR Δ19del/T790M/C797S) cells; assay: Cell phosphorylation inhibition experiment, pEGFR Ba/F3 (EGFR Δ19del/T790M/C797S); type: cell-based; details: Ba/F3 EGFR; Ba/F3 cells, EGF stimulated; read-out: Effect on cellular EGFR phosphorylation Ba/F3(Δ19del/T790M/C797S) IC50
Procedure: The test compounds and reference compounds were diluted with 100% DMSO to 10 mM or 1 mM, and then a gradient dilution was performed by using Echo, 150 nL per well, with a three-fold concentration gradient and a ten-point dose response curve. The final concentration of the compounds was 100 μM or 10 μM. The suspension cells was centrifuged at 1000 rp for 5 minutes, suspend in Hanks' balanced salt solution, and added to a 384-well plate containing the compounds at 10 L/120K/well (the cell density of 1.2×10^7), followed by centrifugation at 1200 rpm for 30 s and incubation at 37° C. for 30 min. 5 μL of EGF (which has been diluted with 0.1% BSA Hanks' balanced salt solution) was added to each well, in which the final concentration of EGF was 1 μM. The plate was centrifuged at 1200 rpm for 30 s and incubated at 37° C. for 20 min. 5 μL of 4× lysis buffer containing blocking solution was added to each well, and then the plate was centrifuged at 1200 rpm for 30 s, and incubated at 37° C. for 30 min.

[3] = molecular target: EGFR (Δ19del/T790M/C797S) (Homo sapiens, UniProt P00533, C797S/T790M, form not given); assay: Enzyme activity experiment (1): EGFR (Δ19del/T790M/C797S) enzyme inhibition; type: biochemical; details: read-out: EGFR (Δ19del/T790M/C797S) IC50
Procedure: 1) 10 μL of the compounds to be tested and reference compounds diluted to 10 mM were taken into an Echo LDV plate, which were diluted according to the compound profile with Echo.
1) 1×enzyme reaction buffer was prepared: 1× enzyme buffer, 5 mM MgCl2, 1 mM DTT (dithiothreitol), water.
2) A mixed solution of 10 nM enzyme (final concentration of 5 nM) and 2 μM substrate (final concentration of 1 μM) and a solution containing the substrate alone were prepared with the diluted enzyme reaction buffer.
3) 5 μL of the substrate was added into A1-H1, J24-P24 (the number of the well position), and 5 μL of the mixture of the enzyme and substrate was added into the remaining wells.
4) Centrifugation was performed at 1000 rpm at 23° C. for 30 s.
5) Incubation was performed at 23° C. for 15 min.
7) Centrifugation was performed at 1000 rpm at 23° C. for 30 s.
8) Incubation was performed at 23° C. for 60 min.
9) 10 μL of 250 nM TK Antibody-Crypate (a final concentration of 125 nM) and 1×D2 (a final concentration ½ time) prepared with Detection buffer were added.
10) Centrifugation was performed at 1000 rpm at 23° C. for 30 s.
11) Incubation was performed at 23° C. for 60 min.
12) The data was read with Envision, and the ratio was calculated to obtain the IC50 of the compound for inhibiting the enzyme activity.

[4] = Plasma, tumor and lung exposure in mice of the Ba/F3 CDX efficacy experiment; type: in vivo; details: mouse, 15.0 mg/kg/day oral
Procedure: On Day 14 after administration to the groups for the efficacy experiment, the plasma was collected from the mice by submandibular blood collection before last administration and 2 hours after last administration, and the plasma samples were collected from the mice at 1 h, 4 h, 8 h and 24 h after administration. About 100 ul of blood was collected each time, placed in an anticoagulation tube, and centrifuged at 8000 rpm for 7 min, to collect plasma, which was stored at −80° C.

[5] = test system: PC9 (EGFR-C797S/T790M/del19); details: combination with panitumumab or cetuximab; Nature Communications 8:14768, 2017; cited from earlier work
[6] = test system: L858R/T790M/C797S mutations model; details: combined with EGFR monoclonal antibody such as cetuximab; Nature 534, 129-132, 2016; cited from earlier work

Chain of EGFR (Δ19del/T790M/C797S) (P00533 25-1210 T790M/C797S limits assumed, form open): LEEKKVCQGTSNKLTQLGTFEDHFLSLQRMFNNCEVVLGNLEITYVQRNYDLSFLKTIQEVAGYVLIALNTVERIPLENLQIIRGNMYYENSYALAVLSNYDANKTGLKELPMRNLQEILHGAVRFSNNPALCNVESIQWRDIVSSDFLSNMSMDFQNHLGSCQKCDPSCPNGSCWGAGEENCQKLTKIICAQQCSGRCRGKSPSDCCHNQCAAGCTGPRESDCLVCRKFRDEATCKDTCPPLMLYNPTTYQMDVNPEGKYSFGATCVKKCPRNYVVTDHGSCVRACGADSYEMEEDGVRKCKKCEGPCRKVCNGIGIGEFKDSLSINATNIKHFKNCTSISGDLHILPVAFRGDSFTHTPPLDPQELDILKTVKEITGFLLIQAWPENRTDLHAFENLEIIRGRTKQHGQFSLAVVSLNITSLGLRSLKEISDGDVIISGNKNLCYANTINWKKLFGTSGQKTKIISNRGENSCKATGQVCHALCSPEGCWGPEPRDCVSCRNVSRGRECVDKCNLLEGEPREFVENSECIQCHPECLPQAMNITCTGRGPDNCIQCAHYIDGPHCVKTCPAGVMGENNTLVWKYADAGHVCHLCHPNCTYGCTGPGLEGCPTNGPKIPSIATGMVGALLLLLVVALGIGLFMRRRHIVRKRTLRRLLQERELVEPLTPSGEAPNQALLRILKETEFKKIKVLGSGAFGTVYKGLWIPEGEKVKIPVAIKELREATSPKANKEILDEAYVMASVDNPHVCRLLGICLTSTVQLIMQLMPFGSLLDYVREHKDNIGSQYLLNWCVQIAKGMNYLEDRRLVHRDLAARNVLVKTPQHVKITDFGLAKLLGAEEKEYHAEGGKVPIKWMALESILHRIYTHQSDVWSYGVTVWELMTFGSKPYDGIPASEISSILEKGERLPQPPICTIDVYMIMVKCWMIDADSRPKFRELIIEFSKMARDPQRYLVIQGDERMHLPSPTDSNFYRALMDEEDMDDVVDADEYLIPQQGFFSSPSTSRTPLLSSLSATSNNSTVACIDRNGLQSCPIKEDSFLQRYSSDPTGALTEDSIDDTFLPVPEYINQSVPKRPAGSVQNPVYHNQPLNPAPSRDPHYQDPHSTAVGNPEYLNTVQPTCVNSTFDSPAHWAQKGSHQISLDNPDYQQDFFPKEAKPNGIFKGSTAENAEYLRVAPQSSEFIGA

| SMILES | IC50 (A431 cells (EGFR WT)) [nM] | IC50 [1] [nM] | IC50 [2] [nM] | IC50 [3] [nM] | further results |
| --- | --- | --- | --- | --- | --- |
| COc1cc(N2CCC3(CCN(C)CC3)CC2)c(Cl)cc1Nc1ncc(Cl)c(Nc2ccc3ccccc3c2P(C)(C)=O)n1 [Compound 4] | 3750 | 556 | 278 | – | – |
| COc1cc(N2CCC3(CC2)CN(C)C3)c(C)cc1Nc1ncc(Br)c(Nc2ccc3nccnc3c2P(C)(C)=O)n1 [Compound 36] | 168 | 45 | 25 | – | – |
| COc1cc(N2CCC3(CC2)CN(CCN(C)C)C3)c(C)cc1Nc1cc(Nc2ccc3nccnc3c2P(C)(C)=O)c(Br)cn1 [Compound 37] | 357 | 56 | 94 | – | – |
| COc1cc(N2CCC(N3CCN(C)CC3)CC2)ccc1Nc1ncc(Cl)c(Nc2ccccc2P(C)(C)=O)n1 [Brigatinib, reference compound] | – | – | – | – | AUC(0-t) ([4]; BALB/c nude, plasma): 32.8 µM·h; half-life ([4]; BALB/c nude, plasma): 5.57 h; concentration at 2 h ([4]; BALB/c nude, plasma, 2 h after administration): 5.18 µM; Lung, 2 h ([4]; 2 h after administration): 10217 nmol/kg; Tumor, 2 h ([4]; 2 h after administration): 5807 nmol/kg; antitumor efficacy [5]: good antitumor efficacy |
| COc1cc(N2CCC(N3CCN(C)CC3)CC2)ccc1Nc1ncc(Cl)c(Nc2ccc3sccc3c2P(C)(C)=O)n1 [Compound 3] | 3240 | 638 | 187 | – | – |
| COc1cc(N2CCC3(CC2)CN(C)C3)c(C)cc1Nc1ncc(Cl)c(Nc2ccc3cccnc3c2P(C)(C)=O)n1 [Compound 12] | 1260 | 239 | 203 | – | – |
| O=C(Nc1nccs1)C(c1cc(F)ccc1O)N1Cc2ccccc2C1=O (stereo not drawn) [EAI045] | – | – | – | – | tumor inhibition effect [6]: better tumor inhibition effect |
| COc1cc(N2CCC3(CC2)CN(C)C3)c(C)cc1Nc1ncc(Cl)c(Nc2ccc3cnn(C)c3c2P(C)(C)=O)n1 [Compound 13] | > 10000 | 3620 | 1720 | 5.79 | – |
| CCc1cc(Nc2ncc(Br)c(Nc3ccc4nccnc4c3P(C)(C)=O)n2)c(OC)cc1N1CCC2(CC1)CN(C)C2 [Compound 40] | 561 | 31 | 24 | – | – |
| COc1cc(N2CCC3(CC2)CN(C)C3)c(C)cc1Nc1ncc(Cl)c(Nc2ccc3ccccc3c2P(C)(C)=O)n1 [Compound 9] | 282 | 149 | 149 | 0.485 | – |
| COc1cc(N2CCC(N3CCN(C)CC3)CC2)ccc1Nc1ncc(Cl)c(Nc2ccc3ccccc3c2P(C)(C)=O)n1 [Compound 6] | 997 | 361 | 187 | 2.54 | – |

Now from value to compound, other results behind:

| IC50 (A431 cells (EGFR WT)) [nM] | IC50 [1] [nM] | IC50 [2] [nM] | IC50 [3] [nM] | SMILES | further results |
| --- | --- | --- | --- | --- | --- |
| 811 | 178 | 68 | 0.613 | COc1cc(N2CCC3(CC2)CN(C)C3)c(C)cc1Nc1ncc(Cl)c(Nc2ccc3sccc3c2P(C)(C)=O)n1 [Compound 2] | – |
| 58 | 32.2 | 58 | – | COc1cc(N2CCC(N3CCN(C)CC3)CC2)c(C)cc1Nc1ncc(Cl)c(Nc2ccc3nccnc3c2P(C)(C)=O)n1 [Example 61] | – |
| 890 | 313 | 96 | 1.63 | COc1cc(N2CCC3(CC2)CN(C)C3)ccc1Nc1ncc(Cl)c(Nc2ccc3ccccc3c2P(C)(C)=O)n1 [Compound 5] | – |
| 534 | 54.3 | 534 | – | COc1cc(N2CCC(N3CCN(C)CC3)CC2)ccc1Nc1ncc(Cl)c(Nc2ccc3nccnc3c2P(C)(C)=O)n1 [Example 59] | – |
| 271 | 47.6 | 271 | – | COc1cc(N2CCC(N3CCN(C)CC3)CC2)ccc1Nc1ncc(Br)c(Nc2ccc3nccnc3c2P(C)(C)=O)n1 [Example 60] | – |
